Laboratory results as given in patent US20250228239A1, “MOLECULES HAVING PESTICIDAL UTILITY, AND INTERMEDIATES, COMPOSITIONS, AND PROCESSES, RELATED THERETO” (priority 2024, published 2025).

Legend:
[1] = test system: Beet Armyworm (Spodoptera exigua, LAPHEG); experiment: Bioassays on Beet Armyworm (BAW), 128-well diet tray assay; assay type: in vivo; details: Spodoptera exigua; Beet Armyworm; rating class; read-out: BAW
Procedure, shortened: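 Second-instar larvae, one to five per well, were placed on artificial diet surface-treated with 50 μg/cm^2 compound in 90:10 acetone-water, eight wells per treatment. Trays were held 5–7 days at 25 °C, 14:10 light-dark. Percent mortality per well was averaged over eight wells.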

[2] = test system: Cabbage Looper (Trichoplusia ni, TRIPNI); experiment: Bioassays on Cabbage Looper (CL), 128-well diet tray assay; assay type: in vivo; details: Trichoplusia ni; Cabbage Looper; rating class; read-out: CL
Procedure, shortened: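 One to five second-instar larvae per well on artificial diet surface-treated with 50 μg/cm^2 test molecule (applied in 90:10 acetone-water, dried). Held 5–7 days at 25° C, 14:10 light-dark; percent mortality recorded per well and averaged over eight wells.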

SMILES | pest or weed control at 50 µg/cm2 [1] | pest or weed control at 50 µg/cm2 [2]
O=C(Nc1cc(NC(=O)C(F)F)c(F)cc1F)c1cc(NC(=O)[C@H]2[C@H](c3cc(Cl)c(Cl)c(Cl)c3)C2(Cl)Cl)cc(F)c1F [F1580, 5-((1R,3R)-2,2-Dichloro-3-(3,4,5-trichlorophenyl)cyclopropane-1-carboxamido)-N-(5-(2,2-difluoroacetamido)-2,4-difluorophenyl)-2,3-difluorobenzamide] | 50 to 100% | 50 to 100%
CC(=O)Nc1cc(NC(=O)c2cc(NC(=O)[C@H]3[C@H](c4cc(Cl)c(Cl)c(Cl)c4)C3(Cl)Cl)cc(F)c2F)c(F)cc1F [F1581, N-(5-Acetamido-2,4-difluorophenyl)-5-((1R,3R)-2,2-dichloro-3-(3,4,5-trichlorophenyl)cyclopropane-1-carboxamido)-2,3-difluorobenzamide] | 50 to 100% | 50 to 100%
O=C(Nc1cc(NC(=O)C(F)(F)F)c(F)cc1F)c1cc(NC(=O)[C@H]2[C@H](c3ccc(Cl)c(Cl)c3)C2(Cl)Cl)cc(F)c1F [F1582, 5-((1R,3R)-2,2-Dichloro-3-(3,4-dichlorophenyl)cyclopropane-1-carboxamido)-N-(2,4-difluoro-5-(2,2,2-trifluoroacetamido)phenyl)-2,3-difluorobenzamide] | 50 to 100% | 50 to 100%
O=C(Nc1cc(NC(=O)C(F)F)c(F)cc1F)c1cc(NC(=O)[C@H]2[C@H](c3ccc(Cl)c(Cl)c3)C2(Cl)Cl)cc(F)c1F [F1583, 5-((1R,3R)-2,2-Dichloro-3-(3,4-dichlorophenyl)cyclopropane-1-carboxamido)-N-(5-(2,2-difluoroacetamido)-2,4-difluorophenyl)-2,3-difluorobenzamide] | 50 to 100% | 50 to 100%
O=C(Nc1cc(NC(=O)C(F)(F)F)c(F)cc1F)c1cc(NC(=O)[C@H]2[C@H](c3ccc(F)c(C(F)(F)F)c3)C2(Cl)Cl)cc(F)c1F [F1584, 5-((1R,3R)-2,2-Dichloro-3-(4-fluoro-3-(trifluoromethyl)phenyl)cyclopropane-1-carboxamido)-N-(2,4-difluoro-5-(2,2,2-trifluoroacetamido)phenyl)-2,3-difluorobenzamide] | 50 to 100% | 50 to 100%
CC(=O)Nc1cc(NC(=O)c2cc(NC(=O)[C@H]3[C@H](c4ccc(Cl)c(Cl)c4)C3(Cl)Cl)cc(F)c2F)c(F)cc1F [F1585, N-(5-Acetamido-2,4-difluorophenyl)-5-((1R,3R)-2,2-dichloro-3-(3,4-dichlorophenyl)cyclopropane-1-carboxamido)-2,3-difluorobenzamide] | 50 to 100% | 50 to 100%
O=C(Nc1cc(NC(=O)C(F)F)c(F)cc1F)c1cc(NC(=O)[C@H]2[C@H](c3ccc(F)c(C(F)(F)F)c3)C2(Cl)Cl)cc(F)c1F [F1586, 5-((1R,3R)-2,2-Dichloro-3-(4-fluoro-3-(trifluoromethyl)phenyl)cyclopropane-1-carboxamido)-N-(5-(2,2-difluoroacetamido)-2,4-difluorophenyl)-2,3-difluorobenzamide] | 50 to 100% | 50 to 100%
CC(=O)Nc1cc(NC(=O)c2cc(NC(=O)[C@H]3[C@H](c4ccc(F)c(C(F)(F)F)c4)C3(Cl)Cl)cc(F)c2F)c(F)cc1F [F1587, N-(5-Acetamido-2,4-difluorophenyl)-5-((1R,3R)-2,2-dichloro-3-(4-fluoro-3-(trifluoromethyl)phenyl)cyclopropane-1-carboxamido)-2,3-difluorobenzamide] | 50 to 100% | 50 to 100%
O=C(Nc1c(F)ccc(NC(=O)C(F)(F)F)c1F)c1cc(NC(=O)[C@H]2[C@H](c3cc(Cl)c(Cl)c(Cl)c3)C2(Cl)Cl)cc(F)c1F [F1588, 5-((1R,3R)-2,2-Dichloro-3-(3,4,5-trichlorophenyl)cyclopropane-1-carboxamido)-N-(2,6-difluoro-3-(2,2,2-trifluoroacetamido)phenyl)-2,3-difluorobenzamide] | 50 to 100% | 50 to 100%
O=C(Nc1c(F)ccc(NC(=O)C(F)F)c1F)c1cc(NC(=O)[C@H]2[C@H](c3cc(Cl)c(Cl)c(Cl)c3)C2(Cl)Cl)cc(F)c1F [F1589, 5-((1R,3R)-2,2-Dichloro-3-(3,4,5-trichlorophenyl)cyclopropane-1-carboxamido)-N-(3-(2,2-difluoroacetamido)-2,6-difluorophenyl)-2,3-difluorobenzamide] | 50 to 100% | 50 to 100%
CC(=O)Nc1ccc(F)c(NC(=O)c2cc(NC(=O)[C@H]3[C@H](c4cc(Cl)c(Cl)c(Cl)c4)C3(Cl)Cl)cc(F)c2F)c1F [F1590, N-(3-Acetamido-2,6-difluorophenyl)-5-((1R,3R)-2,2-dichloro-3-(3,4,5-trichlorophenyl)cyclopropane-1-carboxamido)-2,3-difluorobenzamide] | 50 to 100% | 50 to 100%
N#CC1(C(=O)Nc2c(F)ccc(NC(=O)c3cc(NC(=O)[C@H]4[C@H](c5ccc(Cl)c(Cl)c5)C4(Cl)Cl)ccc3Cl)c2F)CC1 [F1609, 2-Chloro-N-(3-(1-cyanocyclopropane-1-carboxamido)-2,4-difluorophenyl)-5-((1R,3R)-2,2-dichloro-3-(3,4-dichlorophenyl)cyclopropane-1-carboxamido)benzamide] | 50 to 100% | 50 to 100%
O=C(Nc1ccc(F)c(NC(=O)C2CCCO2)c1F)c1cc(NC(=O)[C@H]2[C@H](c3ccc(Cl)c(Cl)c3)C2(Cl)Cl)ccc1Cl (stereo partly drawn) [F1611, N-(3-(2-Chloro-5-((1R,3R)-2,2-dichloro-3-(3,4-dichlorophenyl)cyclopropane-1-carboxamido)benzamido)-2,6-difluorophenyl)tetrahydrofuran-2-carboxamide] | 50 to 100% | 50 to 100%
CCOC(C)C(=O)N(C)c1c(F)ccc(NC(=O)c2cc(NC(=O)[C@H]3[C@H](c4ccc(Cl)c(Cl)c4)C3(Cl)Cl)ccc2Cl)c1F (stereo partly drawn) [F1616, 2-Chloro-5-((1R,3R)-2,2-dichloro-3-(3,4-dichlorophenyl)cyclopropane-1-carboxamido)-N-(3-(2-ethoxy-N-methylpropanamido)-2,4-difluorophenyl)benzamide] | 50 to 100% | 50 to 100%
Nc1c(F)ccc(NC(=O)c2cc(NC(=O)[C@H]3[C@H](c4ccc(Cl)c(C(F)(F)F)c4)C3(Cl)Cl)ccc2Cl)c1F [F1631, N-(3-Amino-2,4-difluorophenyl)-2-chloro-5-((1R,3R)-2,2-dichloro-3-(4-chloro-3-(trifluoromethyl)phenyl)cyclopropane-1-carboxamido)benzamide] | 50 to 100% | 50 to 100%
O=C(Nc1ccc(F)c(NC(=O)C2CCCO2)c1F)c1cc(NC(=O)[C@H]2[C@H](c3cc(Cl)c(Cl)c(Cl)c3)C2(Cl)Cl)ccc1Cl (stereo partly drawn) [F1647, N-(3-(2-Chloro-5-((1R,3R)-2,2-dichloro-3-(3,4,5-trichlorophenyl)cyclopropane-1-carboxamido)benzamido)-2,6-difluorophenyl)tetrahydrofuran-2-carboxamide] | 50 to 100% | 50 to 100%
